From patent US20120225062A1 (priority 2011, published 2012)

System: KMS11 (human myeloma cell line)
Experiment: Cell Proliferation Assay (CellTiter-Glo, 3 days)
Assay type: cell-based
Settings: KMS-11, 72 h, KMS11-luc cells
Protocol: KMS11 (human myeloma cell line), were cultured in IMDM supplemented with 10% FBS, sodium pyruvate and antibiotics. Cells were plated in the same medium at a density of 2000 cells per well into 96 well tissue culture plates, with outside wells vacant, on the day of assay.
Test compounds supplied in DMSO were diluted into DMSO at 500 times the desired final concentrations before dilution into culture media to 2 times final concentrations. Equal volumes of 2× compounds were added to the cells in 96 well plates and incubated at 37° C. for 3 days.
After 3 days plates were equilibrated to room temperature and equal volume of CellTiter-Glow Reagent (Promega) was added to the culture wells. The plates were agitated briefly and luminescent signal was measured with luminometer.
Using the procedures of Cell Proliferation Assay, the EC50 concentrations of compounds of the examples were determined in KMS11 cells as shown in Table 4.

Structure (SMILES)	EC50 [nM]
C[C@@H]1C[C@H](N)C[C@H](c2ccncc2NC(=O)c2ccc(F)c(-c3c(F)cc(S(C)(=O)=O)cc3F)n2)C1 [Example 1, N-(4-((1R,3S,5S)-3-amino-5-methylcyclohexyl)pyridin-3-yl)-6-(2,6-difluoro-4-(methylsulfonyl)phenyl)-5-fluoropicolinamide]	383
Cc1cc(F)c(-c2nc(C(=O)Nc3cnccc3[C@H]3C[C@@H](N)[C@H](O)[C@@H](C)C3)ccc2F)c(F)c1 [Example 4, N-(4-((1R,3R,4R,5S)-3-amino-4-hydroxy-5-methylcyclohexyl)pyridin-3-yl)-6-(2,6-difluoro-4-methylphenyl)-5-fluoropicolinamide]	70
COc1cc(F)c(-c2nc(C(=O)Nc3cnccc3[C@H]3C[C@@H](N)[C@H](O)[C@@H](C)C3)ccc2F)c(F)c1 [Example 5, N-(4-((1R,3R,4R,5S)-3-amino-4-hydroxy-5-methylcyclohexyl)pyridin-3-yl)-6-(2,6-difluoro-4-methoxyphenyl)-5-fluoropicolinamide]	62
Cc1cc(F)c(-c2nc(C(=O)Nc3cnccc3[C@H]3C[C@@H](N)[C@@H](O)[C@@H](C)C3)ccc2F)c(F)c1 [Example 6, N-(4-((1R,3R,4S,5S)-3-amino-4-hydroxy-5-methylcyclohexyl)pyridin-3-yl)-6-(2,6-difluoro-4-methylphenyl)-5-fluoropicolinamide]	41
Cc1cc(F)c(-c2nc(C(=O)Nc3cnccc3[C@@H]3C[C@H](C)C[C@H](N)C3)ccc2F)c(F)c1 [Example 8, N-(4-((1R,3S,5S)-3-amino-5-methylcyclohexyl)pyridin-3-yl)-6-(2,6-difluoro-4-methylphenyl)-5-fluoropicolinamide]	46
COc1cc(F)c(-c2nc(C(=O)Nc3cnccc3[C@@H]3C[C@H](C)C[C@H](N)C3)ccc2F)c(F)c1 [Example 11, N-(4-((1R,3S,5S)-3-amino-5-methylcyclohexyl)pyridin-3-yl)-6-(2,6-difluoro-4-methoxyphenyl)-5-fluoropicolinamide]	71
C[C@H]1C[C@@H](c2ccncc2NC(=O)c2ccc(F)c(-c3c(F)cc(S(C)(=O)=O)cc3F)n2)C[C@@H](N)[C@@H]1O [Example 14, N-(4-((1R,3R,4R,5S)-3-amino-4-hydroxy-5-methylcyclohexyl)pyridin-3-yl)-6-(2,6-difluoro-4-(methylsulfonyl)phenyl)-5-fluoropicolinamide]	1440
CSc1cc(F)c(-c2nc(C(=O)Nc3cnccc3[C@H]3C[C@@H](N)[C@@H](O)[C@@H](C)C3)ccc2F)c(F)c1 [Example 19, N-(4-((1R,3R,4S,5S)-3-amino-4-hydroxy-5-methylcyclohexyl)pyridin-3-yl)-6-(2,6-difluoro-4-(methylthio)phenyl)-5-fluoropicolinamide]	74
C[C@H]1C[C@@H](c2ccncc2NC(=O)c2ccc(F)c(-c3c(F)cc([S@+](C)[O-])cc3F)n2)C[C@@H](N)[C@@H]1O [Example 27, N-(4-((1R,3R,4R,5S)-3-amino-4-hydroxy-5-methylcyclohexyl)pyridin-3-yl)-6-(2,6-difluoro-4-((S)-methylsulfinyl)phenyl)-5-fluoropicolinamide]	90
C[C@H]1C[C@@H](c2ccncc2NC(=O)c2ccc(F)c(-c3c(F)cc([S@@+](C)[O-])cc3F)n2)C[C@@H](N)[C@@H]1O [Example 28]	3880
C[C@H]1C[C@@H](c2ccncc2NC(=O)c2ccc(F)c(-c3c(F)cc(CCO)cc3F)n2)C[C@@H](N)[C@@H]1O [Example 34, N-(4-((1R,3R,4R,5S)-3-amino-4-hydroxy-5-methylcyclohexyl)pyridin-3-yl)-6-(2,6-difluoro-4-(2-hydroxyethyl)phenyl)-5-fluoropicolinamide]	29
CSc1cc(F)c(-c2nc(C(=O)Nc3cnccc3[C@H]3C[C@@H](N)[C@H](O)[C@@H](C)C3)ccc2F)c(F)c1 [Example 36, N-(4-((1R,3R,4R,5S)-3-amino-4-hydroxy-5-methylcyclohexyl)pyridin-3-yl)-6-(2,6-difluoro-4-(methylthio)phenyl)-5-fluoropicolinamide]	107
CCc1cc(F)c(-c2nc(C(=O)Nc3cnccc3[C@H]3C[C@@H](N)[C@H](O)[C@@H](C)C3)ccc2F)c(F)c1 [Example 39, N-(4-((1R,3R,4R,5S)-3-amino-4-hydroxy-5-methylcyclohexyl)pyridin-3-yl)-6-(4-ethyl-2,6-difluorophenyl)-5-fluoropicolinamide]	55
C[C@H]1C[C@@H](c2ccncc2NC(=O)c2ccc(F)c(-c3c(F)cc(C4(O)COC4)cc3F)n2)C[C@@H](N)[C@@H]1O [Example 54, N-(4-((1R,3R,4R,5S)-3-amino-4-hydroxy-5-methylcyclohexyl)pyridin-3-yl)-6-(2,6-difluoro-4-(3-hydroxyoxetan-3-yl)phenyl)-5-fluoropicolinamide]	95
C[C@H]1C[C@@H](c2ccncc2NC(=O)c2ccc(F)c(-c3c(F)cc(C4COC4)cc3F)n2)C[C@@H](N)[C@@H]1O [Example 56, N-(4-((1R,3R,4R,5S)-3-amino-4-hydroxy-5-methylcyclohexyl)pyridin-3-yl)-6-(2,6-difluoro-4-(oxetan-3-yl)phenyl)-5-fluoropicolinamide]	31
C[C@@H]1C[C@H](N)C[C@H](c2ccncc2NC(=O)c2ccc(F)c(-c3c(F)cc(C(F)F)cc3F)n2)C1 [Example 57, N-(4-((1R,3S,5S)-3-amino-5-methylcyclohexyl)pyridin-3-yl)-6-(4-(difluoromethyl)-2,6-difluorophenyl)-5-fluoropicolinamide]	42
C[C@H]1C[C@@H](c2ccncc2NC(=O)c2ccc(F)c(-c3c(F)cc(C(F)F)cc3F)n2)C[C@@H](N)[C@@H]1O [Example 58, N-(4-((1R,3R,4R,5S)-3-amino-4-hydroxy-5-methylcyclohexyl)pyridin-3-yl)-6-(4-(difluoromethyl)-2,6-difluorophenyl)-5-fluoropicolinamide]	42
C[C@H]1C[C@@H](c2ccncc2NC(=O)c2ccc(F)c(-c3c(F)cc(C4(O)CCC4)cc3F)n2)C[C@@H](N)[C@@H]1O [Example 60, N-(4-((1R,3R,4R,5S)-3-amino-4-hydroxy-5-methylcyclohexyl)pyridin-3-yl)-6-(2,6-difluoro-4-(1-hydroxycyclobutyl)phenyl)-5-fluoropicolinamide]	15
C[C@H]1C[C@@H](c2ccncc2NC(=O)c2ccc(F)c(-c3c(F)cc(C(C)(C)O)cc3F)n2)C[C@@H](N)[C@@H]1O [Example 66, N-(4-((1R,3R,4R,5S)-3-amino-4-hydroxy-5-methylcyclohexyl)pyridin-3-yl)-6-(2,6-difluoro-4-(2-hydroxypropan-2-yl)phenyl)-5-fluoropicolinamide]	11
C[C@H]1C[C@@H](c2ccncc2NC(=O)c2ccc(F)c(-c3c(F)cc(C4CC4)cc3F)n2)C[C@@H](N)[C@@H]1O [Example 72, N-(4-((1R,3R,4R,5S)-3-amino-4-hydroxy-5-methylcyclohexyl)pyridin-3-yl)-6-(4-cyclopropyl-2,6-difluorophenyl)-5-fluoropicolinamide]	139
C[C@@H]1C[C@H](N)C[C@H](c2ccncc2NC(=O)c2ccc(F)c(-c3c(F)cc([C@H](C)O)cc3F)n2)C1 [Example 73, N-(4-((1R,3S,5S)-3-amino-5-methylcyclohexyl)pyridin-3-yl)-6-(2,6-difluoro-4-((S)-1-hydroxyethyl)phenyl)-5-fluoropicolinamide]	21
